Like-named read-outs stand apart in the source and are kept apart here.
Tests used:
L1210.Hyor = experiment: Cytostatic assay, Mycoplasma hyorhinis-infected L1210 cells
Text: Murine leukaemia L1210/0 and human T-lymphocyte CEM/0 cells were obtained from the American Type Culture Collection (ATCC) (Rockville, Md.). Human glioblastoma U87 cells were kindly provided by Dr. E. Menue (Institut Pasteur, Paris, France). […] S. Eriksson (currently at Uppsala University, Uppsala, Sweden) and Prof A. Karlsson (Karolinska Institute, Stockholm, Sweden). […] All cells were maintained in Dulbecco's modified Eagle's medium (DMEM) (Invitrogen, Carlsbad, Calif.) with 10% foetal bovine serum (FBS) (Biochrom AG, Berlin, Germany), 10 mM Hepes and 1 mM Sodium Pyruvate (Invitrogen). Cells were grown at 37° C. in a humidified incubator with a gas phase of 5% CO2.
Monolayer cells (U87 and U87.Hyor) were seeded in 48-well microtiter plates (Nunc™, Roskilde, Denmark) at 10,000 cells/well. After 24 hours, an equal volume of fresh medium containing the test compounds was added. On day 5, cells were trypsinized and counted in a Coulter counter (Analis, Suarlée, Belgium). Suspension cells (L1210/0, L1210/TK^−, L1210.Hyor, CEM/0, CEM/TK^−) were seeded in 96-well microtiter plates (Nunc™) at 60,000 cells/well in the presence of a given amount of the test compounds. The cells were allowed to proliferate for 48 h (L1210) or 72 hours (CEM) and were then counted in a Coulter counter.
Samples were also assayed for their % retention of activity in mycoplasma infected cells.
The L1210/0 cell cultures were infected with the mycoplasma species M. hyorhinis (cells designated: L1210.Hyor).

Cem/0 = experiment: Cytostatic assay, CEM/0 cells; assay type: cell-based, human; details: for IC50: Table 6, read-out: IC50 Cem/0; for CC50: Table 1, read-out: CC50 Cem/0
Text: (§1) The cell lines employed were L1210/0 (a leukemia cell line), FM3A/0 (a breast cancer cell line), Cem/0 (an acute lymphoblastic leukemia cell line) and HeLa (a cervical cell line).

HeLa = experiment: Cytostatic assay, HeLa cells; assay type: cell-based; details: for IC50: Table 6, read-out: IC50 HeLa
Text: as §1

L1210/0 = experiment: Cytostatic assay, L1210/0 cells; assay type: cell-based, murine; details: for IC50: read-out: IC50 L1210/0; for CC50: L1210/0, Table 1, read-out: CC50 L1210/0
Text: as §1

HeLa/TK^− = experiment: Cytostatic assay, HeLa/TK^− cells; assay type: cell-based; details: for IC50: Table 6, read-out: IC50 HeLa/TK^−
Text: as §1

Cem/TK^− = experiment: Cytostatic assay, thymidine kinase-deficient CEM/TK^− cells; assay type: cell-based, human; details: for IC50: Table 6, read-out: IC50 Cem/TK^−; for CC50: Table 1, read-out: CC50 Cem/TK^−
L1210/TK^− = experiment: Cytostatic assay, thymidine kinase-deficient L1210/TK^− cells; assay type: cell-based, murine; details: for IC50: Table 6, read-out: IC50 L1210/TK^−; for CC50: L1210, Table 1, read-out: CC50 L1210/TK^−
[1] = read-out: IC50 L1210.Hyor, Table 7
[2] = Mus musculus, L1210, read-out: IC50 L1210.Hyor

| SMILES | IC50(L1210.Hyor)/IC50(L1210/0) (L1210.Hyor; Table 7) | IC50 (L1210.Hyor; [1]) [nM] | IC50 (Cem/0) [nM] | IC50 (HeLa) [nM] | IC50 (L1210/0; Table 6) [nM] | IC50 (L1210/0; Table 7) [nM] | IC50 (HeLa/TK^−) [nM] | IC50 (Cem/TK^−) [nM] | IC50 (L1210/TK^−) [nM] | IC50 (L1210.Hyor; [2]) [nM] | IC50 (Cem/0; Homo sapiens, CCRF-CEM) [nM] | IC50 (HeLa; Homo sapiens, HeLa) [nM] | IC50 (L1210/0; Mus musculus, L1210/0, Table 6) [nM] | IC50 (L1210/0; Mus musculus, L1210/0, Table 7) [nM] | IC50 (HeLa/TK^−; Homo sapiens, HeLa) [nM] | IC50 (Cem/TK^−; Homo sapiens, CEM-TK(-)) [nM] | IC50 (L1210/TK^−; Mus musculus, L1210) [nM] | CC50 (Cem/0; Homo sapiens, CCRF-CEM) [nM] | CC50 (L1210/0; Mus musculus) [nM] | CC50 (Cem/TK^−; Homo sapiens, CEM-TK(-)) [nM] | further results |
| --- | --- | --- | --- | --- | --- | --- | --- | --- | --- | --- | --- | --- | --- | --- | --- | --- | --- | --- | --- | --- | --- |
| CCCCCOC(=O)C(NP(=O)(OCC1OC(n2cc(F)c(=O)[nH]c2=O)CC1O)Oc1cccc2ccccc12)C(C)CC (mixture of isomers) [Nap Pnt Ile] | 1.67 | 700 ± 74 | 460 ± 110 | 300 ± 20 | 220 ± 120 | 420 ± 21 | 11000 ± 1000 | 17000 ± 1000 | 12000 ± 2000 | – | – | – | – | – | – | – | – | – | – | – | – |
| CCCCCOC(=O)C(Cc1ccccc1)NP(=O)(OCC1OC(n2cc(F)c(=O)[nH]c2=O)CC1O)Oc1cccc2ccccc12 (mixture of isomers) [Nap Pnt Phe] | 4.67 | 140 ± 7 | 100 | 40 | 26 ± 1 | 30 ± 3.9 | 6600 ± 500 | 8300 ± 1000 | 2900 ± 1200 | – | – | – | – | – | – | – | – | – | – | – | – |
| CCC(C)C(NP(=O)(OCC1OC(n2cc(F)c(=O)[nH]c2=O)CC1O)Oc1ccccc1)C(=O)OCc1ccccc1 (mixture of isomers) [Ph Bn Ile] | 2.2 | 2200 ± 31 | 1000 ± 100 | 710 ± 150 | 76 ± 22 | 980 ± 390 | 25000 ± 11000 | 30000 ± 10000 | 1100 ± 100 | – | – | – | – | – | – | – | – | – | – | – | – |
| C[C@H](NP(=O)(OC[C@H]1O[C@@H](n2cc(F)c(=O)[nH]c2=O)CC1O)Oc1cccc2ccccc12)C(=O)OC1Cc2ccccc2C1 (stereo partly drawn) [CPF597, 5-Fluoro-2′-deoxyuridine-5′-O-[1-naphthyl-(2-indanoxy-L-alaninyl)]phosphate] | 1.08 | – | – | – | – | – | – | – | – | 42 ± 40 | 79 ± 18 | 100 ± 60 | 21 ± 2 | 39 ± 19 | 7100 ± 2100 | 1000 ± 200 | 40000 | – | – | – | – |
| COC(=O)[C@H](C)NP(=O)(OC[C@H]1O[C@@H](n2cc(F)c(=O)[nH]c2=O)CC1O)Oc1ccccc1 (stereo partly drawn) [CPF 382, 5-Fluoro-2′-deoxyuridine-5′-O-[phenyl(methoxy-L-alaninyl)] phosphate, reference compound] | 22 | – | – | – | – | – | – | – | – | 870 ± 280 | 700 ± 370 | 280 ± 140 | 22 ± 7 | 40 ± 16 | 4700 ± 400 | 35000 ± 12000 | 41000 ± 3000 | 346 | 25.5 | 32700 | CC50 (L1210/TK^−; Mus musculus): 37800 nM |
| CCOC(=O)[C@H](C)NP(=O)(O)OCC1OC(n2cc(F)c(=O)[nH]c2=O)CC1O (stereo partly shown) [CPF 437, reference compound] | – | – | – | – | – | – | – | – | – | – | – | – | – | – | – | – | – | > 100000 | 36000 ± 5000 | > 100000 | CC50 (HeLa; Homo sapiens, HeLa, Table 1, read-out: CC50 HeLa): > 100000 nM; CC50 (HeLa/TK^−; Homo sapiens, HeLa, Table 1, read-out: CC50 HeLa/TK^−): > 100000 nM; CC50 (L1210/TK^−; Mus musculus): > 100000 nM |
